Values quoted from earlier work, collected in patent US20160220512A1, “MODIFIED RELEASE PHARMACEUTICAL FORMULATIONS” (RUBICON RESEARCH PRIVATE LIMITED, priority 2013, published 2016).

Key:
[1] = memantine and its salts
[2] = system: N-methyl d-aspartate (NMDA) receptor; details: uncompetitive NMDA receptor antagonist

Question: With `CC12CC3CC(C)(C1)CC(N)(C3)C2` [Memantine, 1-amino-3,5-dimethyladamantane] as the compound, how does the BCS classification [1] read?
Answer: The BCS classification was “BCS Class I”.

Question: What about the permeability [1] of the same compound?
Answer: Its permeability is “highly permeable”.

Question: And the solubility [1]?
Answer: Its solubility is “highly soluble”.

Question: What about the “affinity for the receptor” value [2] of the same compound?
Answer: The value was “moderate affinity”.
